The values that follow are results of earlier work, collected in PMC9232612, “A phase 1b randomised controlled trial of a glucagon-like peptide-1 and glucagon receptor dual agonist IBI362 (LY3305677) in Chinese patients with type 2 diabetes” (Nature Communications, 2022).

In one data set the test system is patients with T2D. As to conditions: daily-dose, Japanese patients with T2D; cited from earlier work. The source says:
Several GLP-1 and glucagon dual agonists have shown either glycaemic control or weight loss benefit in various settings. […] SAR425899, a […] GLP-1 and glucagon receptor dual agonist, achieved placebo-adjusted mean HbA1c level reductions up to 0.75% in patients with overweight or obesity and T2D[11].

The conditions of data set [1]: phase 2a, after 49 days of drug exposure; ref Parker VER et al. JCEM 2021;105(3):803-20; cited from earlier work. The method, then:
page 3: doses of IBI362 (4.5 and 6 mg). It would be helpful to provide the time course of the GI adverse events to ascertain whether they occurred during the up-titration phase and whether the symptoms persisted during the 12 weeks. Only one participant in the IBI362 4.5 mg cohort withdrew from the study due to decreased appetite. The cardiovascular safety profile of IBI362 reported in this manuscript raised some safety concerns and will be addressed in greater detail herein. Cardiovascular disorders were reported in 5 participants receiving IBI362 compared with one in each of the placebo and ...

Cotadutide: the “reduction in body weight from baseline to day 50 (up to)” value with patients with T2D is reported as “up to 3.3%”. Also, in data set [1], the “mean change in diastolic BP” value is listed as “+1.16 mm Hg”, the “mean change in systolic BP” value was -2.8 mm Hg and the “mean increase in heart rate” value was “+7.1 BPM”.
